Measured values published in patent US20120309728A1, “NEW STEROID INHIBITORS OF PGP FOR USE FOR INHIBITING MULTIDRUG RESISTANCE” (priority 2009, published 2012).

Experiments:
K562/R7 cells = assay: Cytotoxicity assay using MTT reagent, with doxorubicin plus steroid modulator; type: cell-based, human; settings: doxorubicin 10^−6M + steroid modulator 10^−6M, 72 h
Experimental: Doxorubicin at 10^−6 M was then added to each well. After incubation for 72 h, 20 μL of MTT reagent (5 mg/mL in PBS buffer) were added to each well and the plate was further incubated for 4 h at 37° C., allowing viable cells to change the yellow MTT into dark-blue formazan crystals. Supernatants were carefully discarded and 100 μL of isopropanol containing 10% HCL 1M were added to dissolve the formazan crystals. Absorbance in each well was determined at 570 nm using a microplate reader (MultisKan EX, Thermo Electron). […] At least three different experiments were performed. Results were expressed as the percentage of surviving cells in each well compared to untreated cells.

R7 cells = assay: Intracellular accumulation of daunorubicin measured by flow cytometry; type: cell-based, human; settings: for Daunorubicin accumulation: daunorubicin 10 μM, compound 10 μM, 1 h at 37° C.
Experimental: The accumulation of daunorubicin in the presence of steroid modulators according to the invention, i.e. compounds having formula (I), was measured by flow cytometry using a reported procedure (G. Comte et al, J. Med. Chem., 44: 763-768, 2001). K562 or R7 cells ([…]) were incubated for 1 h at 37° C. with 1 mL RPMI 1640 medium containing daunorubicin at 10 μM, in the presence or absence of compounds of the invention (10 μM). The cells were then washed twice with ice-cold PBS and kept on ice until analysis by flow cytometry on a FACS-II (Becton-Dickinson Corp., Mountain View, Calif.). Assays were performed in duplicate, in at least three separate experiments.

Molecule	Surviving cells R7 cells (% untreated cells) (K562/R7 cells)	Daunorubicin accumulation (R7 cells)	accumulation of daunorubicin compared in words with cyclosporine A or progesterone (R7 cells)
CC(=O)C1CCC2C3C[C@@H](OC(=O)c4ccccc4)[C@@H]4CC(=O)CCC4(C)C3[C@H](OC3CCCCO3)CC12C (mixture of isomers) [Compound 217, 6β-Benzoyloxy-11α-O-[2′(R and S)]tetrahydropyranyloxy(5β)pregnan-3,20-dione]	5.5 ± 0.4	–	–
CC(=O)C1CCC2C3C[C@@H](OC(=O)c4ccccc4)[C@@H]4CC(=O)CCC4(C)C3[C@H](OC3CCCCO3)CC12C (mixture of isomers) [Compound 218, 6β-Benzoyloxy-11α-O-[2′(R and S)]tetrahydropyranyloxy(5β)pregnan-3,20-dione]	6.2 ± 1.1	–	–
COC(=O)CC[C@@H](C)[C@H]1CC[C@H]2[C@@H]3[C@H](OC(=O)c4ccccc4)CC4CC(=O)CC[C@]4(C)[C@H]3C[C@H](O[C@@H]3CCCCO3)[C@]12C (single isomer, unassigned) [Compound 60]	2.2 ± 0.3	79.8 ± 6.1 % of the accumulation measured in the presence of cyclosporine A	–
CC(=O)C1CCC2C3C(CC[C@]12C)[C@@]1(C)CCC(=O)C=C1C[C@@H]3OC1CCCCO1 (stereo partly drawn) [Compound 3, 7beta-O-[2′(R+S)]Tetrahydropyranyloxypregn-4-ene-3,20-dione]	–	108.78 ± 4.27 % of the accumulation measured in the presence of cyclosporine A	–
CC(=O)C1CCC2C3CC[C@@H]4CC(=O)CC[C@]4(C)C3[C@H](OC3CCCCO3)C[C@]12C (stereo partly drawn) [Compound 7, 11α-O-[2′(R)]Tetrahydropyranyloxy(5β)pregnane-3,20-dione]	–	103.0 ± 1.86 % of the accumulation measured in the presence of cyclosporine A	–
CC(=O)[C@@]1(OC2CCCCO2)CCC2C3CCC4=CC(=O)CC[C@]4(C)C3CC[C@@]21C (stereo partly drawn) [Compound 11, 17alpha-O-[2′(R)]Tetrahydropyranyloxypregn-4-ene-3,20-dione]	–	108.08 ± 6.28 % of the accumulation measured in the presence of cyclosporine A	–
CC(=O)[C@H]1CC[C@H]2[C@H]3[C@H]([C@H](OC(=O)c4ccccc4)C[C@]12C)[C@@]1(C)CCC(=O)C[C@H]1C[C@H]3OC(=O)c1ccccc1 [Compound 30, 7alpha,11alpha-Di benzoyloxy(5beta)pregnane-3,20-dione]	–	75.39 ± 0.39 % of the accumulation measured in the presence of cyclosporine A	–
CC(=O)C1CCC2C3C([C@H](OC4CCCCO4)C[C@]12C)[C@@]1(C)CCC(=O)C[C@H]1C[C@H]3OC(=O)c1ccccc1 (stereo partly drawn) [Compound 32, 7α-Benzoyloxy-11α-O-[2′(S)]tetrahydropyranyloxy (5β)pregnane-3,20-dione]	–	103.88 ± 4.53 % of the accumulation measured in the presence of cyclosporine A	–
CC(=O)C1CCC2C3C([C@H](OC4CCCCO4)C[C@]12C)[C@@]1(C)CCC(=O)C[C@H]1C[C@@H]3OC(=O)c1ccccc1 (stereo partly drawn) [Compound 39, 7β-Benzoyloxy-11α-O-[2′(S)]tetrahydropyranyloxy(5β)pregnane-3,20-dione]	–	109.0 ± 1.0 % of the accumulation measured in the presence of cyclosporine A	–
CC(=O)C1CCC2C3C([C@H](OC4CCCCO4)C[C@]12C)[C@@]1(C)CCC(=O)C[C@H]1C[C@@H]3OC(=O)c1ccccc1 (stereo partly drawn) [Compound 40, 7β-Benzoyloxy-11α-O-[2′(R)]tetrahydropyranyloxy(5β) pregnane-3,20-dione]	–	89.5 ± 0.5 % of the accumulation measured in the presence of cyclosporine A	–
CC(=O)[C@H]1CC[C@H]2[C@H]3[C@H]([C@H](OC(=O)c4ccccc4)C[C@]12C)[C@@]1(C)CCC(=O)C[C@H]1C[C@@H]3OC(=O)c1ccccc1 [Compound 41, 7β,11α-Dibenzoyloxy(5β)pregnane-3,20-dione]	–	73.3 ± 0.5 % of the accumulation measured in the presence of cyclosporine A	–
CC(=O)[C@@]1(OC2CCCCO2)CCC2C3CC[C@@H]4CC(=O)CC[C@]4(C)C3[C@H](OC3CCCCO3)C[C@@]21C (stereo partly drawn) [Compound 52, 11α,17α-Bis-O-[2′(R),2′(R)]tetrahydropyranyloxy(5β)pregnane-3,20-dione]	–	102.01 ± 2.0 % of the accumulation measured in the presence of cyclosporine A	equivalent to that observed with cyclosporine A
CC(=O)[C@@]1(O[C@H]2CCCCO2)CC[C@H]2[C@@H]3CC[C@@H]4CC(=O)CC[C@]4(C)[C@H]3[C@H](O[C@H]3CCCCO3)C[C@@]21C [Compound 53, 11α,17α-Bis-O-[2′(S),2′(S)]Tetrahydropyranyloxy(5β)pregnane-3,20-dione]	–	107.0 ± 5.0 % of the accumulation measured in the presence of cyclosporine A	equivalent to that observed with cyclosporine A
COC(=O)CC[C@@H](C)[C@H]1CC[C@H]2[C@@H]3[C@H](OC(=O)c4ccccc4)CC4CC(=O)CC[C@]4(C)[C@H]3C[C@H](OC(=O)c3ccccc3)[C@]12C (stereo partly drawn) [Compound 57, Methyl 3-oxo-7alpha,12alpha-dibenzoyloxycholanate]	–	74 ± 1.0 % of the accumulation measured in the presence of cyclosporine A	–
COC(=O)CC[C@@H](C)[C@H]1CC[C@H]2[C@@H]3[C@H](OC(=O)c4ccccc4)CC4CC(=O)CC[C@]4(C)[C@H]3C[C@H](O[C@H]3CCCCO3)[C@]12C (stereo partly drawn) [Compound 59, Methyl 3-oxo-7α-benzoyloxy-12α-O-[2′(S)]tetrahydropyranyloxycholanate]	1.8 ± 0.1	85.8 ± 2.6 % of the accumulation measured in the presence of cyclosporine A	–
COCCC[C@@H](C)[C@H]1CC[C@H]2[C@@H]3[C@H](OC(=O)c4ccccc4)CC4CC(=O)CC[C@]4(C)[C@H]3C[C@H](OC(=O)c3ccccc3)[C@]12C (stereo partly drawn) [Compound 71, 3-oxo-7α,12α-dibenzoyloxy-24-methoxycholane]	–	50.50 ± 7.5 % of the accumulation measured in the presence of cyclosporine A	–
COCCC[C@@H](C)[C@H]1CC[C@H]2[C@@H]3[C@H](O[C@H]4CCCCO4)CC4CC(=O)CC[C@]4(C)[C@H]3C[C@H](OC(=O)c3ccccc3)[C@]12C (stereo partly drawn) [Compound 73, 3-oxo-12α-benzoyloxy-7α-O-[2′(S)]tetrahydro-pyranyloxy-24-methoxycholane]	–	63.5 ± 5.5 % of the accumulation measured in the presence of cyclosporine A	–
COCCC[C@@H](C)[C@H]1CC[C@H]2[C@@H]3[C@H](O[C@@H]4CCCCO4)CC4CC(=O)CC[C@]4(C)[C@H]3C[C@H](OC(=O)c3ccccc3)[C@]12C (stereo partly drawn) [Compound 74, 3-oxo-12α-benzoyloxy-7α-O-[2′(R)]tetrahydropyranyloxy-24-methoxycholane]	–	68.0 ± 15.0 % of the accumulation measured in the presence of cyclosporine A	–
CC(=O)[C@H]1CC[C@H]2[C@@H]3CCC4=CC(=O)CC[C@]4(C)[C@H]3CC[C@]12C [progesterone, reference compound]	–	36.27 ± 4.9 % of the accumulation measured in the presence of cyclosporine A	–
Cyclosporine A [reference compound]	1.6 ± 0.5	–	–
